In article PMC5845896, “A Novel Bifunctional Amino Acid Racemase With Multiple Substrate Specificity, MalY From Lactobacillus sakei LT-13: Genome-Based Identification and Enzymological Characterization” (Frontiers in Microbiology, 2018):
Changes are numbered by the printed parent chain.

Columns and labels:
Ls-MalY [1] = target: T1, Ls-MalY (Lactobacillaceae, UniProt A0A223K4L6); test: UV-vis absorption spectrum ([…] nm peak), hydroxylamine treatment; format: binding; conditions: 20 mM potassium phosphate pH 7.5; as purified; covalent, K233
T1 construct: full length in pET-22b(+), C-terminal hexa-histidine tag, E. coli BL21(DE3), subunit ~46 kDa with tag, 281 kDa by gel filtration, homohexamer
T1 sequence (A0A223K4L6 1-391): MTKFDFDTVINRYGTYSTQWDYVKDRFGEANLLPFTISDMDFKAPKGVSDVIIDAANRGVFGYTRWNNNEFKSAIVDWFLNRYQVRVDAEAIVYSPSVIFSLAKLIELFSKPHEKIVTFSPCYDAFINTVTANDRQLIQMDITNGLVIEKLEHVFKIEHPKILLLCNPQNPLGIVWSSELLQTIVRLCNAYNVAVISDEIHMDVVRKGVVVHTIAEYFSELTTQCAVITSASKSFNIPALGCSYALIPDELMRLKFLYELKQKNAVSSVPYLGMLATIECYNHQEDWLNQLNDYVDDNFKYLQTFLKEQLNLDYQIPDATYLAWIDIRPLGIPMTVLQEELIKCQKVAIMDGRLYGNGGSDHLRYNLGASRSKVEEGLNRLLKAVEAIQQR

Ls-MalY [2] = target: T2, Ls-MalY (Lactobacillaceae, UniProt A0A223K4L6, Y123A); test: UV-vis absorption spectrum, hydroxylamine treatment; format: binding; conditions: 20 mM potassium phosphate pH 7.5; as purified
T2 construct: full length in pET-22b(+), C-terminal hexa-histidine tag, E. coli BL21(DE3), subunit ~46 kDa with tag, 281 kDa by gel filtration, homohexamer
T2 sequence (A0A223K4L6 1-391 Y123A): T1 sequence (A0A223K4L6 1-391) with Y123A

[3] = target: MalY from Lactobacillus sakei LT-13 (wild type) (Lactobacillus sakei LT-13); test: SEC; Superdex 200 Increase 10/300 GL, 20 mM potassium phosphate pH 7.5 with 0.15 M KCl, 0.75 mL/min; molecular weight estimated against markers (thyroglobulin, apoferritin, β-amylase, BSA, carbonic anhydrase)

| Compound | UV-vis absorption spectrum (420 nm peak), hydroxylamine treatment (Ls-MalY [1]) | UV-vis absorption spectrum, hydroxylamine treatment (Ls-MalY [2]) | stoichiometry N [3] |
| --- | --- | --- | --- |
| Cc1ncc(COP(=O)(O)O)c(C=O)c1O [PLP] | the absorption peak was abolished by treatment with hydroxylamine (Figure 3A), suggesting that Ls-MalY bound PLP | These spectral features suggest that the Y123A mutant bound PLP |  |
| MalY from Lactobacillus sakei LT-13 (wild type) (enzyme) |  |  | 6 |
